Here are results for 35 compounds from patent US20140377241A1, “BIOPREPARATION BALIS FOR THE PROPHYLAXIS AND TREATMENT OF INFECTIOUS DISEASES” (priority 2010, published 2014).

Assay [1] deals with B. licheniformis VKPM B-8610. In words: Sensitivity to antibiotics of the Bacillus type strains (inhibited growth area). Type of assay: cell-based, Bacillus licheniformis.
The test system of another assay is B. subtilis VKPM B-8611. The assay is described as above. The class given is cell-based.

Like-named read-outs stand apart in the source and are kept apart here.

In the case of `CC(C)(O/N=C(\C(=O)N[C@@H]1C(=O)N2C(C(=O)[O-])=C(C[n+]3ccccc3)CS[C@H]12)c1csc(N)n1)C(=O)O` [Ceftazidime], the “Diameter of the culture's inhibited growth area” value in assay [1] (B. licheniformis VKPM B-8610) is recorded as 13 ± 0.2 mm; with B. subtilis VKPM B-8611 it was 6 ± 0.3 mm.

Consider `CO/N=C(\C(=O)N[C@@H]1C(=O)N2C(C(=O)O)=C(COC(C)=O)CS[C@H]12)c1csc(N)n1` [Cefotaxime], for which the “Diameter of the culture's inhibited growth area” value in assay [1] (B. licheniformis VKPM B-8610) turned out to be 9 ± 0.1 mm; with B. subtilis VKPM B-8611, 15 ± 0.1 mm.

Turning to Polymyxin B, the “Diameter of the culture's inhibited growth area” value in assay [1] (B. licheniformis VKPM B-8610) was 10 ± 0.2 mm; in the assay with B. subtilis VKPM B-8611, 11 ± 0.1 mm.

Regarding `Cn1nnnc1SCC1=C(C(=O)O)N2C(=O)[C@@H](NC(=O)[C@H](O)c3ccccc3)[C@H]2SC1` [Cefamandole], the results for the “Diameter of the culture's inhibited growth area” value (in assay [1] (B. licheniformis VKPM B-8610); in the assay on B. subtilis VKPM B-8611) were 15 ± 0.1 mm and 35 ± 0.3 mm, respectively.

For the compound `NC[C@H]1O[C@H](O[C@H]2[C@H](O)[C@@H](O[C@H]3O[C@H](CO)[C@@H](O)[C@H](N)[C@H]3O)[C@H](N)C[C@@H]2N)[C@H](N)C[C@@H]1O` [Tobramycin], the “Diameter of the culture's inhibited growth area” value in assay [1] (B. licheniformis VKPM B-8610) came out at 20 ± 0.2 mm; with B. subtilis VKPM B-8611, 25 ± 0.1 mm.

Consider `O=C1CN(/N=C/c2ccc([N+](=O)[O-])o2)C(=O)N1` [Nitrofurantoin], for which the figures for the “Diameter of the culture's inhibited growth area” value (in assay [1] (B. licheniformis VKPM B-8610); in the assay with B. subtilis VKPM B-8611) were 20 ± 0.1 mm and 15 ± 0.2 mm, respectively.

For `CC1(C)S[C@@H]2[C@H](NC(=O)[C@H](NC(=O)N3CCNC3=O)c3ccccc3)C(=O)N2[C@H]1C(=O)O` [Azlocillin], the “Diameter of the culture's inhibited growth area” value worked out at 16 ± 0.1 mm in assay [1] (B. licheniformis VKPM B-8610) and 19 ± 0.1 mm in the assay with B. subtilis VKPM B-8611.

In the case of `CCN1CCN(C(=O)N[C@@H](C(=O)N[C@@H]2C(=O)N3[C@@H]2SC(C)(C)[C@@H]3C(=O)O)c2ccccc2)C(=O)C1=O` [Piperacillin], the “Diameter of the culture's inhibited growth area” value in assay [1] (B. licheniformis VKPM B-8610) is recorded as 11 ± 0.1 mm; in the assay with B. subtilis VKPM B-8611, 15 ± 0.3 mm.

Turning to `CO/N=C(\C(=O)N[C@@H]1C(=O)N2C(C(=O)O)=C(CSc3nc(=O)c(=O)[nH]n3C)CS[C@H]12)c1csc(N)n1` [Ceftriaxone], the “Diameter of the culture's inhibited growth area” value was found to be 12 ± 0.2 mm in assay [1] (B. licheniformis VKPM B-8610) and 20 ± 0.4 mm in the assay on B. subtilis VKPM B-8611.

Take `COc1cc(Cc2cnc(N)nc2N)cc(OC)c1OC` [Trimethoprim]: the “Diameter of the culture's inhibited growth area” value in assay [1] (B. licheniformis VKPM B-8610) is 25 ± 0.2 mm; with B. subtilis VKPM B-8611, 23 ± 0.1 mm.

Turning to `CO[C@@]1(NC(=O)Cc2cccs2)C(=O)N2C(C(=O)O)=C(COC(N)=O)CS[C@@H]21` [Cefoxitin], the “Diameter of the culture's inhibited growth area” value in assay [1] (B. licheniformis VKPM B-8610) worked out at 13 ± 0.1 mm; with B. subtilis VKPM B-8611, 18 ± 0.1 mm.

For `CCN1CCN(C(=O)N[C@@H](C(=O)N[C@@H]2C(=O)N3C(C(=O)O)=C(CSc4nnnn4C)CS[C@H]23)c2ccc(O)cc2)C(=O)C1=O` [Cefoperazone], the “Diameter of the culture's inhibited growth area” value in assay [1] (B. licheniformis VKPM B-8610) is listed as 13 ± 0.1 mm; with B. subtilis VKPM B-8611, 15 ± 0.2 mm.

`CN[C@H](CC(C)C)C(=O)N[C@H]1C(=O)N[C@@H](CC(N)=O)C(=O)N[C@H]2C(=O)N[C@H]3C(=O)N[C@H](C(=O)N[C@H](C(=O)O)c4cc(O)cc(O)c4-c4cc3ccc4O)[C@H](O)c3ccc(c(Cl)c3)Oc3cc2cc(c3O[C@@H]2O[C@H](CO)[C@@H](O)[C@H](O)[C@H]2O[C@H]2C[C@](C)(N)[C@H](O)[C@H](C)O2)Oc2ccc(cc2Cl)[C@H]1O` [Vancomycin]: the “Diameter of the culture's inhibited growth area” value is 10 ± 0.1 mm in assay [1] (B. licheniformis VKPM B-8610) and 12 ± 0.1 mm in the assay with B. subtilis VKPM B-8611.

On to `CC1(C)S[C@@H]2[C@H](NC(=O)[C@H](NC(=O)N3CCN(S(C)(=O)=O)C3=O)c3ccccc3)C(=O)N2[C@H]1C(=O)O` [Mezlocillin], for which the “Diameter of the culture's inhibited growth area” value in assay [1] (B. licheniformis VKPM B-8610) was 15 ± 0.2 mm; with B. subtilis VKPM B-8611, 21 ± 0.2 mm.

Regarding `NCC[C@H](O)C(=O)N[C@@H]1C[C@H](N)[C@@H](O[C@H]2O[C@H](CN)[C@@H](O)[C@H](O)[C@H]2O)[C@H](O)[C@H]1O[C@H]1O[C@H](CO)[C@@H](O)[C@H](N)[C@H]1O` [Amikacin], the “Diameter of the culture's inhibited growth area” value turned out to be 17 ± 0.2 mm in assay [1] (B. licheniformis VKPM B-8610) and 22 ± 0.3 mm in the assay with B. subtilis VKPM B-8611.

Consider `CO[C@@]1(NC(=O)C(C(=O)O)c2ccc(O)cc2)C(=O)N2C(C(=O)O)=C(CSc3nnnn3C)CO[C@@H]21` (stereo partly shown) [Moxalactam], for which the figures for the “Diameter of the culture's inhibited growth area” value (in assay [1] (B. licheniformis VKPM B-8610); in the assay on B. subtilis VKPM B-8611) were 12 ± 0.3 mm and 11 ± 0.2 mm, respectively.

`CC1(C)S[C@@H]2[C@H](NC(=O)[C@H](N)c3ccccc3)C(=O)N2[C@H]1C(=O)O` [Ampicillin]: the “Diameter of the culture's inhibited growth area” value in assay [1] (B. licheniformis VKPM B-8610) is given as “∘”; in the assay with B. subtilis VKPM B-8611, 11 ± 0.2 mm.

Consider `CCn1cc(C(=O)O)c(=O)c2cc(F)c(N3CCNCC3)cc21` [Norfloxacin], for which the “Diameter of the culture's inhibited growth area” value stood at 25 ± 0.2 mm in assay [1] (B. licheniformis VKPM B-8610) and 24 ± 0.2 mm in the assay with B. subtilis VKPM B-8611.

For `CCC[C@@H]1C[C@@H](C(=O)N[C@@H]([C@H]2O[C@H](SC)[C@H](O)[C@@H](O)[C@H]2O)[C@H](C)Cl)N(C)C1` [Clindamycin], the “Diameter of the culture's inhibited growth area” value in assay [1] (B. licheniformis VKPM B-8610) was found to be 12 ± 0.1 mm; in the assay on B. subtilis VKPM B-8611 it was 9 ± 0.2 mm.

For the compound `CC1(C)S[C@@H]2[C@H](NC(=O)C(C(=O)O)c3ccccc3)C(=O)N2[C@H]1C(=O)O` (stereo partly shown) [Carbenicillin], the “Diameter of the culture's inhibited growth area” value was 20 ± 0.1 mm in assay [1] (B. licheniformis VKPM B-8610) and 23 ± 0.5 mm in the assay with B. subtilis VKPM B-8611.

On to `Cc1nnc(SCC2=C(C(=O)O)N3C(=O)[C@@H](NC(=O)Cn4cnnn4)[C@H]3SC2)s1` [Cefazolin], for which the “Diameter of the culture's inhibited growth area” value was found to be 19 ± 0.2 mm in assay [1] (B. licheniformis VKPM B-8610) and 25 ± 0.2 mm in the assay with B. subtilis VKPM B-8611.

With `CC(=O)OCC1=C(C(=O)O)N2C(=O)[C@@H](NC(=O)Cc3cccs3)[C@H]2SC1` [Cephalothin], the figures for the “Diameter of the culture's inhibited growth area” value (in assay [1] (B. licheniformis VKPM B-8610); in the assay with B. subtilis VKPM B-8611) were 21 ± 0.3 mm and 35 ± 0.1 mm, respectively.

As for `COc1cccc(OC)c1C(=O)N[C@@H]1C(=O)N2[C@@H]1SC(C)(C)[C@@H]2C(=O)O` [Methicillin], the entries for the “Diameter of the culture's inhibited growth area” value (in assay [1] (B. licheniformis VKPM B-8610); in the assay on B. subtilis VKPM B-8611) were 10 ± 0.1 mm and 20 ± 0.1 mm, respectively.

Take `C[C@@H](O)[C@H]1C(=O)N2C(C(=O)O)=C(SCCN=CN)C[C@H]12` [Imipenem]: the “Diameter of the culture's inhibited growth area” value is listed as 30 ± 0.1 mm in assay [1] (B. licheniformis VKPM B-8610) and 38 ± 0.2 mm with B. subtilis VKPM B-8611.

For `CC1(C)S[C@@H]2[C@H](NC(=O)[C@H](N)c3ccc(O)cc3)C(=O)N2[C@H]1C(=O)O` [Amoxicillin], the “Diameter of the culture's inhibited growth area” value in assay [1] (B. licheniformis VKPM B-8610) was determined as 16 ± 0.1 mm; with B. subtilis VKPM B-8611 it was 19 ± 0.2 mm.

For the compound `NC[C@H]1O[C@H](O[C@H]2[C@H](O)[C@@H](O[C@H]3O[C@H](CO)[C@@H](O)[C@H](N)[C@H]3O)[C@H](N)C[C@@H]2N)[C@H](O)[C@@H](O)[C@@H]1O` [Kanamycin], the “Diameter of the culture's inhibited growth area” value worked out at 21 ± 0.1 mm in assay [1] (B. licheniformis VKPM B-8610) and 22 ± 0.2 mm with B. subtilis VKPM B-8611.

For `CC1(C)S[C@@H]2[C@H](NC(=O)Cc3ccccc3)C(=O)N2[C@H]1C(=O)O` [Benzylpenicillin], the “Diameter of the culture's inhibited growth area” value is on record as 3 ± 0.2 mm in assay [1] (B. licheniformis VKPM B-8610) and 7 ± 0.1 mm with B. subtilis VKPM B-8611.

As to `CN(C)[C@@H]1C(O)=C(C(N)=O)C(=O)[C@@]2(O)C(O)=C3C(=O)c4c(O)cccc4[C@@](C)(O)[C@H]3C[C@@H]12` [Tetracycline], the “Diameter of the culture's inhibited growth area” value came to 24 ± 0.1 mm in assay [1] and 26 ± 0.1 mm in the assay on B. subtilis VKPM B-8611.

As for Gentamicin, the “Diameter of the culture's inhibited growth area” value in assay [1] (B. licheniformis VKPM B-8610) amounted to 19 ± 0.2 mm; with B. subtilis VKPM B-8611 it was 25 ± 0.3 mm.

On to `CO/N=C(\C(=O)N[C@@H]1C(=O)N2C(C(=O)O)=C(COC(N)=O)CS[C@H]12)c1ccco1` [Cefuroxime], for which the entries for the “Diameter of the culture's inhibited growth area” value (in assay [1] (B. licheniformis VKPM B-8610); in the assay with B. subtilis VKPM B-8611) were 3 ± 0.1 mm and 2 ± 0.1 mm, respectively.

Regarding `Cc1onc(-c2ccccc2)c1C(=O)N[C@@H]1C(=O)N2[C@@H]1SC(C)(C)[C@@H]2C(=O)O` [Oxacillin], the “Diameter of the culture's inhibited growth area” value is recorded as 11 ± 0.1 mm in assay [1] (B. licheniformis VKPM B-8610) and 15 ± 0.3 mm in the assay with B. subtilis VKPM B-8611.

As for `CC1(C)S[C@@H]2[C@H](NC(=O)[C@H](C(=O)O)c3ccsc3)C(=O)N2[C@H]1C(=O)O` [Ticarcillin], the “Diameter of the culture's inhibited growth area” value is reported as 21 ± 0.2 mm in assay [1] (B. licheniformis VKPM B-8610) and 25 ± 0.4 mm in the assay with B. subtilis VKPM B-8611.

As to `O=C(N[C@H](CO)[C@H](O)c1ccc([N+](=O)[O-])cc1)C(Cl)Cl` [Chloramphenicol], the “Diameter of the culture's inhibited growth area” value in assay [1] (B. licheniformis VKPM B-8610) came out at 10 ± 0.1 mm; in the assay on B. subtilis VKPM B-8611, 18 ± 0.3 mm.

As to `CO/N=C(\C(=O)N[C@@H]1C(=O)N2C(C(=O)O)=CCS[C@H]12)c1csc(N)n1` [Ceftizoxime], the “Diameter of the culture's inhibited growth area” value in assay [1] (B. licheniformis VKPM B-8610) stood at 11 ± 0.1 mm; with B. subtilis VKPM B-8611, 3 ± 0.1 mm.

In the case of `CCn1cc(C(=O)O)c(=O)c2ccc(C)nc21` [Nalidixic acid], the “Diameter of the culture's inhibited growth area” value in assay [1] (B. licheniformis VKPM B-8610) is 15 ± 0.1 mm; with B. subtilis VKPM B-8611, 21 ± 0.1 mm.
